# Test results reported in patent EP0367447A1, “Human epithelial transforming growth factor” (SMITHKLINE BEECHAM CORPORATION, priority 1988, dated 1990).
# Ends that are not written are not given here.
# System: SW13 cells
# Experiment: growth of SW13 cells in soft agar (colony formation, Halper et al. 1983, modified)
# Format: cell-based, human
# Conditions: qualitative; whether the substance stimulates or mimics the growth response
# Description: By the term 'anchorage independent growth of SW13 cells in soft agar in an autocrine fashion' is meant that the anchorage independent growth of the SW13 cells in soft agar is stimulated by a growth factor produced by the SW13 cells. Such 'anchorage independent growth of SW13 cells in soft agar is measured by the method described by Halper et al., Cancer Research, 43, 1972-1979 (1983). Preferably such method is modified so that the base and upper layers contain 0.5% and 0.3% agarose, respectively in DMEM, 10% fetal bovine serum, and 5000 cells are plated per 3 cm dish.
# h-TGFe activity was measured using growth of SW13 cells in soft agar as described by Halper et al., Cancer Research, 43, 1972-1979 (1983), except that the base and upper layers contained 0.5% and 0.3% agarose, respectively in DMEM, 10% fetal bovine serum, and 5000 cells were plated per 3 cm dish.
# Human milk was delipidated by ether extraction and acidified with TFA (0.5% final concentration). The acidified material was filtered through a 0.45 µm membrane and concentrated 5-fold using an Amicon YM5 membrane. The concentrate was dialyzed against 0.05% TFA, lyophilized, reconstituted at 10 times the original concentration and bioassayed on SW13 cells.
# Samples of colon carcinoma tissue from patients along with two specimens of normal adjacent colon were obtained at surgery and snap frozen in liquid nitrogen. […]
row,Substance,colony formation by SW13 cells in the soft agar assay
1,bombesin,not mimicked
2,"gastrin: Synthetic human gastrin obtained from Sigma (QGPWLEEEEEAYGWMDF; ends and bridges not checked; UniProt P01350 76-92, looked up)",not mimicked
